Measured values reported in article PMC3740399, “Carfilzomib in multiple myeloma patients with renal impairment: pharmacokinetics and safety” (Leukemia, 2013).

What was measured:
[1] = Urinary excretion of carfilzomib (LC MS/MS); type: in vivo, human
Protocol: Blood for plasma PK analysis was collected on days 1 and 15 of Cycle 1, and on day 15 of Cycle 2, before dosing (t=0), at the end of dosing, and at 5, 15 and 30 min and 1, 1.5, 2, 4, 6 and 24 h after dosing; urine samples were collected cumulatively over 0–5 h and 5–24 h on days 1 and 15 of Cycle 1 following administration of carfilzomib to determine carfilzomib concentrations. Carfilzomib concentrations were determined using validated liquid chromatography tandem mass spectrometry (LC MS/MS) methods with a calibration range of 0.300–300 ng/ml for plasma samples and 4.0–2000 ng/ml for urine samples. Plasma concentration of carfilzomib versus time was plotted on days 1 and 15 in Cycle 1, and PK parameters were calculated using a non-compartmental constant infusion method using WinNonlin (Pharsight, Sunnyvale, CA, USA). To determine whether renal impairment affected the PK of carfilzomib, the relationship between renal function status and relevant PK parameters was evaluated. Statistical comparison (analysis of variance) of the ln-transformed dose-adjusted PK parameters was also performed between patients with normal renal function and each group of patients with renal impairment. For these parameters, 90% confidence intervals (CI) were calculated for the ratios between least squares of the mean (LSM) for each group versus the normal renal function group (Group 1). […]

[2] = test system: proteasome chymotrypsin-like activity; assay: Proteasome chymotrypsin-like activity in whole blood (RBC) and PBMC, fluorogenic substrate (LLVY-AMC) assay; type: in vivo, human
Protocol: Proteasome chymotrypsin-like activity was measured in whole-blood (red blood cells, RBC) and isolated peripheral blood mononuclear cell samples using a fluorogenic-based substrate assay as previously described.[15] Blood for PDn analysis was collected before carfilzomib dosing and 1 h after carfilzomib dosing on days 1, 2 and 8 of Cycle 1 and on day 1 of Cycle 2.
Figure 2 Proteasome inhibition following the first dose of carfilzomib. Proteasome activity was measured in whole-blood and peripheral blood mononuclear cells before and 1 h after the first dose of 15 mg/m^2 carfilzomib on day 1 of Cycle 1 (using LLVY-AMC substrate). Data are presented as mean activity (±s.e.m.) relative to pre-dose values for each group. The number of patient samples for each Group is noted. Group 1, normal renal function; Group 2, mild renal impairment; Group 3, moderate renal impairment; Group 4, severe renal impairment; Group 5, chronic dialysis.

[3] = Safety: treatment-emergent adverse events (CTCAE Version 3.0); type: in vivo, human; conditions: for Anemia, Grades 3/4 / Decreased hemoglobin, Grades 3/4 / Dyspnea, Grades 3/4 / Fatigue, Grades 3/4 / Hypokalemia, Grades 3/4 / Lymphopenia, Grades 3/4 / Pain, Grades 3/4 / Pneumonia, Grades 3/4 / Thrombocytopenia, Grades 3/4: number of patients
Protocol: (§1) All patients who received at least one dose of carfilzomib were included in the safety population. Incidence, severity and duration of AEs, including all serious AEs and those considered to be treatment related, and shifts to or from abnormal relative to baseline in key laboratory parameters were categorized according to the National Cancer Institute's Common Terminology Criteria for Adverse Events (CTCAE) Version 3.0.[16] […] ECGs were performed in most patients to satisfy regulatory requirements, but were not required by the study protocol.

[4] = design: species or system human; conditions: in vivo
Protocol: as §1

[5] = test system: relapsed and/or refractory multiple myeloma; assay: Efficacy: best response (IMWG criteria with EBMT minimal response); type: in vivo, human; conditions: for Overall response rate: PR or better
Protocol: Patients who received at least 1 cycle of carfilzomib and had at least one post-baseline assessment for disease response were included in the efficacy analysis. Each evaluable patient's best response to treatment over the course of the study was evaluated by the investigator and sponsor using the International Myeloma Working Group Uniform Response Criteria, modified to include minimal response defined per the European Group for Blood and Marrow Transplantation.[17], [18] Responses assessed by the investigators at the end of the study are reported here. The overall response rate was defined as the proportion of PR or better responses, and the 95% Clopper-Pearson exact binomial CI was calculated. The duration of response was calculated as the time from the first evidence of a PR or better until confirmation of disease progression. Median time to progression and progression-free survival were assessed among all patients with >stable disease (s.d.). For progression-free survival, deaths due to causes other than disease progression were censored.

[6] = in vivo
Protocol: Carfilzomib was administered by IV infusion over 2–10 min on days 1, 2, 8, 9, 15 and 16 of a 28-day cycle for up to 12 cycles. The dose of carfilzomib in Cycle 1 was 15 mg/m^2. If this dose was tolerated, it was increased to 20 mg/m^2 at Cycle 2, and to 27 mg/m^2 at Cycle 3 and for all subsequent cycles as tolerated.
Blood for plasma PK analysis was collected on days 1 and 15 of Cycle 1, and on day 15 of Cycle 2, before dosing (t=0), at the end of dosing, and at 5, 15 and 30 min and 1, 1.5, 2, 4, 6 and 24 h after dosing; urine samples were collected cumulatively over 0–5 h and 5–24 h on days 1 and 15 of Cycle 1 following administration of carfilzomib to determine carfilzomib concentrations. Carfilzomib concentrations were determined using validated liquid chromatography tandem mass spectrometry (LC MS/MS) methods with a calibration range of 0.300–300 ng/ml for plasma samples and 4.0–2000 ng/ml for urine samples. Plasma concentration of carfilzomib versus time was plotted on days 1 and 15 in Cycle 1, and PK parameters were calculated using a non-compartmental constant infusion method using WinNonlin (Pharsight, Sunnyvale, CA, USA). To determine whether renal impairment affected the PK of carfilzomib, the relationship between renal function status and relevant PK parameters was evaluated. Statistical comparison (analysis of variance) of the ln-transformed dose-adjusted PK parameters was also performed between patients with normal renal function and each group of patients with renal impairment. For these parameters, 90% confidence intervals (CI) were calculated for the ratios between least squares of the mean (LSM) for each group versus the normal renal function group (Group 1). […] The primary PK parameters—apparent plasma clearance, dose-normalized AUCinf (total exposure), and the dose-normalized Cmax on day 1 and day 15 of Cycle 1—were also estimated as a function of CrCl by linear regression using a mixed-effects model (Y=β0+β1 × CrCl+β2 × Age+β3 × weight, where Y=PK parameter, β0 = intercept, and β1, β2 and β3 are slope parameters associated with CrCl, age and weight, respectively).

[7] = Group 1 (normal renal function), n=12
[8] = Group 2 (mild impairment), n=12
[9] = Group 3 (moderate impairment), n=10
[10] = Group 4 (severe impairment), n=8
[11] = Group 5 (chronic dialysis), n=8
[12] = All patients, n=28, patients who received dexamethasone ⩾20 mg before carfilzomib doses
[13] = All patients, n=47, all patients with response assessment
[14] = Group 1 (normal renal function), n=7, patients who received dexamethasone ⩾20 mg before carfilzomib doses
[15] = Group 1 (normal renal function), n=11, all patients with response assessment
[16] = Group 2 (mild impairment), n=8, patients who received dexamethasone ⩾20 mg before carfilzomib doses
[17] = Group 2 (mild impairment), n=11, all patients with response assessment
[18] = Group 3 (moderate impairment), n=4, patients who received dexamethasone ⩾20 mg before carfilzomib doses
[19] = Group 3 (moderate impairment), n=9, all patients with response assessment
[20] = Group 4 (severe impairment), n=5, patients who received dexamethasone ⩾20 mg before carfilzomib doses
[21] = Group 4 (severe impairment), n=8, all patients with response assessment
[22] = Group 5 (chronic dialysis), n=4, patients who received dexamethasone ⩾20 mg before carfilzomib doses
[23] = Group 5 (chronic dialysis), n=8, all patients with response assessment

## CC(C)C[C@H](NC(=O)[C@H](CCc1ccccc1)NC(=O)CN1CCOCC1)C(=O)N[C@@H](Cc1ccccc1)C(=O)N[C@@H](CC(C)C)C(=O)[C@@]1(C)CO1 [carfilzomib]
[1]; all groups, Days 1 and 15 of Cycle 1, within 24 h post-dosing
  total amount of carfilzomib recovered in the urine, of the administered dose: less than 1%
[1]; group with normal renal function, day 1 of Cycle 1, 15 mg/m^2 IV, post-dose urine collection, LC MS/MS
  mean total concentration of carfilzomib in urine: 0.157 mg
[2]; RBCs and peripheral blood mononuclear cells, one hour after the first dose, 15 mg/m^2, range across groups
  inhibition of proteasome CT-L activity from pre-dose levels: 73–87%
[2]; by the start of Cycle 2, cumulative inhibition during first treatment cycle
  recovery of proteasome CT-L activity in RBCs: little to no recovery
[2]; day 8 (5 days after the most recent dose) and beginning of Cycle 2 (12 days after dosing)
  recovery of proteasome activity in peripheral blood mononuclear cells: complete or near to complete
[3]; [7]
  Anemia, Grades 3/4: 2
  Decreased hemoglobin, Grades 3/4: 1
  Dyspnea, Grades 3/4: 0
  Fatigue, Grades 3/4: 2
  Hypokalemia, Grades 3/4: 1
  Lymphopenia, Grades 3/4: 2
  Pain, Grades 3/4: 0
  Pneumonia, Grades 3/4: 1
  Thrombocytopenia, Grades 3/4: 1
[3]; [8]
  Anemia, Grades 3/4: 4
  Decreased hemoglobin, Grades 3/4: 0
  Dyspnea, Grades 3/4: 0
  Fatigue, Grades 3/4: 1
  Hypokalemia, Grades 3/4: 1
  Lymphopenia, Grades 3/4: 3
  Pain, Grades 3/4: 2
  Pneumonia, Grades 3/4: 1
  Thrombocytopenia, Grades 3/4: 5
[3]; [9]
  Anemia, Grades 3/4: 5
  Decreased hemoglobin, Grades 3/4: 1
  Dyspnea, Grades 3/4: 2
  Fatigue, Grades 3/4: 2
  Hypokalemia, Grades 3/4: 0
  Lymphopenia, Grades 3/4: 1
  Pain, Grades 3/4: 3
  Pneumonia, Grades 3/4: 3
  Thrombocytopenia, Grades 3/4: 3
[3]; [10]
  Anemia, Grades 3/4: 2
  Decreased hemoglobin, Grades 3/4: 1
  Dyspnea, Grades 3/4: 1
  Fatigue, Grades 3/4: 1
  Hypokalemia, Grades 3/4: 1
  Lymphopenia, Grades 3/4: 2
  Pain, Grades 3/4: 0
  Pneumonia, Grades 3/4: 1
  Thrombocytopenia, Grades 3/4: 1
[3]; [11]
  Anemia, Grades 3/4: 1
  Decreased hemoglobin, Grades 3/4: 1
  Dyspnea, Grades 3/4: 1
  Fatigue, Grades 3/4: 1
  Hypokalemia, Grades 3/4: 1
  Lymphopenia, Grades 3/4: 1
  Pain, Grades 3/4: 0
  Pneumonia, Grades 3/4: 0
  Thrombocytopenia, Grades 3/4: 0
[3]; all patients, n=50
  Grade 3/4 anemia, incidence: 28.0%
  Grade 3/4 fatigue, incidence: 14.0%
  Grade 3/4 lymphopenia, incidence: 18.0%
  Grade 3/4 thrombocytopenia, incidence: 20.0%
[3]; in vivo
  AEs leading to dose reduction: 18.0%
  Clinical congestive heart failure: four
  Grade 3 neuropathy during the study: 2.0%
  Serious AE acute renal failure: 6.0%
  Serious AE congestive heart failure: 6.0%
  Serious AE dehydration: 6.0%
  Serious AE pneumonia: 16.0%
  Serious AEs, patients: 66.0%
  anemia of any grade, incidence: 50.0%
  diarrhea of any grade, incidence: 36.0%
  elevations in serum creatinine from Grade ⩽2 at baseline to Grade 3 at any point after beginning treatment: Five
  fatigue of any grade, incidence: 56.0%
  incidence of treatment-emergent or worsening neuropathy of any grade: 12.0%
  nausea of any grade, incidence: 36.0%
  patients with at least one treatment-emergent AE: 94.0%
  worsening of renal function to Grade 3: 12.0%
[3]; n=2 of 50
  Grade 3/4 infection: respiratory tract infection: 4.0%
  Grade 3/4 infection: sepsis: 4.0%
[3]; n=3 of 50
  Grade 3/4 infection: influenza: 6.0%
[3]; n=6 of 50
  Grade 3/4 infection: bacterial pneumonia: 12.0%
[3]; n=50, all attributed primarily to disease progression
  deaths on study or within 30 days of discontinuation of treatment: five
[3]; three patients of 50
  Serious AE influenza: 6.0%
[4]
  ECG effects on heart rate, atrioventricular conduction, cardiac depolarization (QT, PR, QRS intervals): no clinically relevant effects
[5]; [12]
  Complete response: 0 n (%)
  Minimal response: 3 (10.7) n (%)
  Progressive disease: 5 (17.9) n (%)
  Stable disease: 10 (35.7) n (%)
  Very good PR: 0 n (%)
[5]; All patients, n=47
  Overall response rate: 12 (25.5) n (%)
[5]; [13]
  Complete response: 0 n (%)
  Progressive disease: 10 (21.3) n (%)
  Stable disease: 21 (44.7) n (%)
  Very good PR: 0 n (%)
[5]; All patients, NE, not estimated due to censoring
  Duration of response, median (95% CI): 7.9 months
[5]; [14]
  Complete response: 0 n (%)
  Minimal response: 1 n (%)
  Progressive disease: 0 n (%)
  Stable disease: 3 (42.9) n (%)
  Very good PR: 0 n (%)
[5]; [15]
  Minimal response: 1 (9.1) n (%)
  Progressive disease: 1 (9.1) n (%)
[5]; Group 1 (normal renal function), NE, not estimated due to censoring
  Duration of response, median (95% CI): NE (2.0–NE)
[5]; [16]
  Complete response: 0 n (%)
  Minimal response: 1 (12.5) n (%)
  Progressive disease: 3 (37.5) n (%)
  Stable disease: 1 (12.5) n (%)
  Very good PR: 0 n (%)
[5]; Group 2 (mild impairment), n=11
  Overall response rate: 3 (27.3) n (%)
[5]; [17]
  Complete response: 0 n (%)
  Minimal response: 1 (9.1) n (%)
  Stable disease: 3 (27.3) n (%)
  Very good PR: 0 n (%)
[5]; Group 2 (mild impairment), NE, not estimated due to censoring
  Duration of response, median (95% CI): NE (4.2–NE)
[5]; [18]
  Complete response: 0 n (%)
  Minimal response: 0 n (%)
  Progressive disease: 0 n (%)
  Stable disease: 3 (75.0) n (%)
  Very good PR: 0 n (%)
[5]; Group 3 (moderate impairment), n=9
  Overall response rate: 2 (22.2) n (%)
[5]; [19]
  Complete response: 0 n (%)
  Minimal response: 0 n (%)
  Progressive disease: 3 (33.3) n (%)
  Stable disease: 4 (44.4) n (%)
  Very good PR: 0 n (%)
[5]; Group 3 (moderate impairment), NE, not estimated due to censoring
  Duration of response, median (95% CI): NE (2.3–NE)
[5]; [20]
  Complete response: 0 n (%)
  Minimal response: 1 (20.0) n (%)
  Progressive disease: 2 (40.0) n (%)
  Stable disease: 2 (40.0) n (%)
  Very good PR: 0 n (%)
[5]; [10]
  Overall response rate: 2 (25.0) n (%)
[5]; [21]
  Complete response: 0 n (%)
  Minimal response: 1 (12.5) n (%)
  Progressive disease: 2 (25.0) n (%)
  Stable disease: 3 (37.5) n (%)
  Very good PR: 0 n (%)
[5]; Group 4 (severe impairment), NE, not estimated due to censoring
  Duration of response, median (95% CI): NE (7.9–NE)
[5]; Group 5 (chronic dialysis)
  Duration of response, median (95% CI): 7.9 (6.5–8.5) months
[5]; [22]
  Complete response: 0 n (%)
  Minimal response: 0 n (%)
  Progressive disease: 0 n (%)
  Stable disease: 1 (25.0) n (%)
  Very good PR: 0 n (%)
[5]; [11]
  Overall response rate: 3 (37.5) n (%)
[5]; [23]
  Complete response: 0 n (%)
  Minimal response: 0 n (%)
  Progressive disease: 0 n (%)
  Stable disease: 4 (50.0) n (%)
  Very good PR: 0 n (%)
[5]; nine of 28 patients who received dexamethasone before each carfilzomib dose after Cycle 2
  Response improved to PR after the addition of dexamethasone: 32.1%
[6]
  Slope (95% CI) of linear regression of AUCinf as a function of creatinine clearance: 0.012 (−0.030, 0.054)
  Slope (95% CI) of linear regression of AUClast (h·ng/ml) as a function of creatinine clearance: 0.008 (−0.031, 0.048)
  Slope (95% CI) of linear regression of Cmax (ng/ml) as a function of creatinine clearance: 0.225 (−0.242, 0.692)
  Slope (95% CI) of linear regression of carfilzomib clearance (l/h) as a function of creatinine clearance: −0.607 (−2.129, 0.914)
[6]; iv
  CL: 110 L/h
  median terminal half life (t1/2): less than 60 min
